Measured values taken from ChEMBL document CHEMBL3632604, “Anti-inflammatory Inositol Derivatives from the Whole Plant of Inula cappa” (J Nat Prod, 2015).
Calls of active or inactive are those of the source. No cut-off for these calls is given here.

How the values were obtained:
RAW264.7 [1] = experiment: Antiinflammatory activity in mouse RAW264.7 cells assessed as inhibition of LPS-induced nitric oxide production at 10 uM preincubated for 30 mins followed by LPS stimulation measured after 24 hrs by Griess assay relative to control; assay type: functional
RAW264.7 [2] = experiment: Antiinflammatory activity in mouse RAW264.7 cells assessed as inhibition of LPS-induced nitric oxide production preincubated for 30 mins followed by LPS stimulation measured after 24 hrs by Griess assay; assay type: functional, cell-based

IC50 (RAW264.7 [2])	Structure (SMILES)	inhibition (RAW264.7 [1])	inhibition at 10 µM (RAW264.7 [1])
	C/C=C(/C)C(=O)O[C@@H]1[C@@H](O)[C@H](O)[C@@H](OC(=O)/C(C)=C\C)[C@@H](OC(=O)/C(C)=C\C)[C@H]1O	Active	
	C/C=C(/C)C(=O)O[C@H]1[C@@H](O)[C@@H](OC(C)=O)[C@H](OC(=O)/C(C)=C\C)[C@@H](OC(=O)/C(C)=C\C)[C@@H]1O		38.3%
7.6 µM	C/C=C(/C)C(=O)O[C@@H]1[C@@H](O)[C@H](OC(=O)/C(C)=C\C)[C@@H](OC(=O)/C(C)=C\C)[C@H](O)[C@@H]1OC(=O)C(C)C		47.2%
19 µM	C/C=C(/C)C(=O)O[C@@H]1[C@@H](O)[C@H](OC(=O)/C(C)=C\C)[C@@H](OC(=O)/C(C)=C\C)[C@@H](OC(=O)/C(C)=C\C)[C@H]1O		47.9%
9.9 µM	C/C=C(/C)C(=O)O[C@H]1[C@H](OC(=O)/C(C)=C\C)[C@H](OC(=O)/C(C)=C\C)[C@@H](O)[C@@H](OC(=O)/C(C)=C\C)[C@@H]1O		59.6%
1.6 µM	Cc1ccc(-c2cc(C(F)(F)F)nn2-c2ccc(S(N)(=O)=O)cc2)cc1 [CELECOXIB]		59.2%
8.9 µM	C/C=C(/C)C(=O)O[C@H]1[C@H](O)[C@@H](O)[C@H](OC(=O)/C(C)=C\C)[C@H](OC(=O)/C(C)=C\C)[C@H]1O	Active	
11.9 µM	C/C=C(/C)C(=O)O[C@@H]1[C@H](O)[C@@H](OC(C)=O)[C@@H](OC(=O)/C(C)=C\C)[C@H](OC(=O)/C(C)=C\C)[C@H]1O		43.4%
7.1 µM	C/C=C(/C)C(=O)O[C@@H]1[C@H](OC(C)=O)[C@@H](OC(C)=O)[C@@H](OC(=O)/C(C)=C\C)[C@H](O)[C@H]1OC(=O)/C(C)=C\C	Active	
7 µM	C/C=C(/C)C(=O)O[C@@H]1[C@@H](O)[C@H](OC(=O)/C(C)=C\C)[C@H](OC(=O)/C(C)=C\C)[C@@H](O)[C@H]1OC(=O)/C(C)=C\C		39.7%
9.6 µM	C/C=C(/C)C(=O)O[C@@H]1[C@@H](O)[C@H](OC(=O)/C(C)=C\C)[C@@H](OC(=O)/C(C)=C\C)[C@H](O)[C@@H]1OC(C)=O	Active	
23.4 µM	C/C=C(/C)C(=O)O[C@@H]1[C@@H](O)[C@H](OC(=O)/C(C)=C\C)[C@@H](OC(=O)/C(C)=C\C)[C@H](O)[C@@H]1O		37.4%
9.8 µM	C/C=C(/C)C(=O)O[C@@H]1[C@@H](O)[C@@H](OC(=O)/C(C)=C\C)[C@@H](OC(=O)/C(C)=C\C)[C@H](O)[C@H]1OC(=O)/C(C)=C\C		42.1%
	C/C=C(/C)C(=O)O[C@H]1[C@H](O)[C@H](O)[C@H](OC(=O)/C=C(\C)CC)[C@@H](O)[C@@H]1OC(=O)/C(C)=C\C	Active	
8.4 µM	C/C=C(/C)C(=O)O[C@@H]1[C@@H](O)[C@@H](OC(=O)/C=C(\C)CC)[C@H](O)[C@@H](O)[C@@H]1OC(=O)/C(C)=C\C	Active	
